Test system: breast cancer patients
Assay: Chemotherapeutic effect of anticancer agent: tumor size reduction evaluated by palpation in breast cancer patients
Assay type: in vivo, human
Procedure: An anticancer agent docetaxel (Aventis) was administered 4 times with an interval of 3 to 4 weeks, with 60 mg/M^2 (body surface area) per dosage for the breast cancer patients A through I. After the administration, the tumor size reduction was assessed.
A pathologist evaluated the tumors by palpation according to the criteria described in the following paper: Arbuck S G, Eisenhauer E A, Wanders J, Kaplan R S, Rubinstein L, Verweij J, Van Glabbeke M, van Oosterom A T, Christian M C, and Gwyther S G, “New guidelines to evaluate the response to treatment in solid tumors”, J. Natl. Cancer Inst 2000; 92: 205-21. When the tumor was evaluated with the result of “Complete response” and “Partial response”, the tumor was classified into the group of tumor size reduction. When the tumor was evaluated with the result of “Stable Disease” and “Progressive Disease”, the tumor was classified into the group of non-tumor size reduction.
An anticancer agent paclitaxel (Bristol Meyers Squibb) was administered once a week for 12 consecutive weeks, with 80 mg/M^2 (body surface area) per dosage for the breast cancer patients A through I (sic, correctly, J through P). After the administration, the tumor size reduction was assessed according to the same criterion as used in the administration of docetaxel.

[1] = docetaxel 60 mg/M^2 per dosage, 4 times with an interval of 3 to 4 weeks, breast cancer patients A through I

Structure (SMILES)	patients who were assessed that the tumor size reduction was observed (paclitaxel 80 mg/M^2 per dosage, once a week for 12 consecutive weeks, breast cancer patients J through P)	patients classified into non-tumor size reduction group (Stable Disease or Progressive Disease) [1]	patients classified into tumor size reduction group (Complete response or Partial response) [1]
CC(=O)O[C@H]1C(=O)[C@@]2(C)[C@H]([C@H](OC(=O)c3ccccc3)[C@]3(O)C[C@H](OC(=O)[C@H](O)[C@@H](NC(=O)c4ccccc4)c4ccccc4)C(C)=C1C3(C)C)[C@]1(OC(C)=O)CO[C@@H]1C[C@@H]2O [paclitaxel]	K, L, M, N, O, and P		
CC(=O)O[C@@]12CO[C@@H]1C[C@H](O)[C@@]1(C)C(=O)[C@H](O)C3=C(C)[C@@H](OC(=O)[C@H](O)[C@@H](NC(=O)OC(C)(C)C)c4ccccc4)C[C@@](O)([C@@H](OC(=O)c4ccccc4)[C@H]21)C3(C)C [docetaxel]		A, B, C, and D	E, F, G, H, and I

Reference: patent US20070231837A1, “Method of Assessing Properties of Mammalian Cells, and Method of Diagnosing Cancer Using the Same” (priority 2004, published 2007)
